Experimental data: patent US20230136562A1, “SPIROUREA DERIVATIVES” (Idorsia Pharmaceuticals Ltd, priority 2020, published 2023)
Where two headings read alike, the source gives them in different places.

Tested on: primary neuronal cultures from embryonic rat brains
Assay: Rat oscillation assay (FLIPR, neuronal calcium oscillations)
Format: cell-based
Conditions: Rattus norvegicus
Description: A) Rat Oscillation Assay:
This assay is a functional phenotypic assay designed to mimic epileptic seizures using primary neuronal cultures from embryonic rat brains, which form a functional neuronal network that generate synchronized intracellular calcium concentration oscillations when cultured at high density in 384-well plate. The epileptic phenotype is induced by incubating the neurons in magnesium-free assay buffer, that results in increased probability of NMDA receptor activation, leading to an increased frequency and amplitude of intracellular calcium oscillations. Once neurons are incubated with the calcium indicator dye Fluo-8 AM (Tebu-bio), neuronal calcium oscillations can be monitored in real time using FLIPR® Tetra (fluorometric plate reader, Molecular Devices). With these recordings, the effect of anti-epileptic drugs can be quantified. The anti-epileptic effect of compounds, which activate directly or indirectly the Kv7 channels can be modulated by the Kv7 channel blocker XE-991. The assay was performed as described previously (Pacico N, Mingorance-Le Meur A. New In Vitro Phenotypic Assay for Epilepsy: Fluorescent Measurement of Synchronized Neuronal Calcium Oscillations. PLoS ONE 9(1) 2014) with modifications described hereafter.
Animal care followed standard procedures in accordance with swiss institutional guidelines. Dissociated neuronal cultures were obtained from cerebral cortices of embryonic Wistar rats at embryonic stage E18 (Charles River). The uterine horns were removed by caesarian surgery from deeply anesthetized rats (Isofurane) and sacrificed by decapitation. The embryos were decapitated by closing forceps. The brains were isolated and dissected one by one in ice-cold PBS (Life Technologies) under optical control using a binocular. Meninges, olfactory bulbs, and basal ganglia were removed. Cortical hemispheres (still including the hippocampus) were cut in small pieces with tweezers and placed on ice in pre-chilled Hibernate-E medium (Life technology). The hemispheres were then incubated in 10 mL of Hibernate-E containing 15 U/mL papain (Worthington) for 25 min at 30° C. with gentle mixing every 10 min. Genomic DNA was then digested by prolonging the incubation during 10 min at 37° C. in presence of 4 U/mL rDNase I (Ambion). The obtained suspension was then centrifuged at 800 g for 5 min and the cell pellet was resuspended in 2 mL Hibernate-E and gently dissociated by pipetting up and down 10 times with a plastic Pasteur pipette resulting in a homogenous cell suspension. This suspension was immediately filtered through a 70 µm cell strainer (MACS® SmartStrainer, Miltenyi), collected in 10 mL Hibernate-E and centrifuged at 800 g for 5 min. The cell pellet was resuspended in Neurobasal medium, supplemented with 2% B-27, 0.5 mM Glutamax-I, 100 U/mL penicillin, 100 µg/mL streptomycin (Life Technologies) and diluted at the final concentration of 300′000 cells/mL. One day before plating the cells, 384-well plates were coated with 25 μL/well of 0.1% poly-L-lysine solution (Sigma), incubated overnight at 37° C., washed two times with sterile distilled water and allowed to dry at room temperature for >2 h. The neurons were seeded at a density of 15′000 cells/well in 50 μL/well in a 384-well black, clear-bottomed plates (Corning) and subsequently maintained in an incubator at 37° C., 5% CO2 and 95% humidity for 8 to 10 days. After 3 and 7 days, 40% of media was renewed under sterile conditions.
Protocol Rat Oscillation Assay
Neurons seeded in the assay plates were washed with Hank's balanced salt solution (HBSS) devoid of Ca^2+ and Mg^2+, supplemented with 20 mM HEPES (Life Technologies) and 2 mM CaCl2 (Sigma), pH 7.4 (hereafter called Assay buffer) using a Biotek EL406 plate washer. Neurons were loaded with 1 μM Fluo-8 AM in Assay buffer for 15 min at 37° C., 5% CO2. […]

[1] = 20 min, AUC of fluorescence measured 20 min after compound addition, read-out: FLIPR: IC50 [nM] 20 min
[2] = Acute phase, ratio of AUC fluorescence before and after compound addition, read-out: FLIPR: IC50 [nM] acute

Row | Compound | IC50 [1] | IC50 [2]
1 | NC(=O)C(NC(=O)NC1CC2(CCC2)C1)c1cccc(C(F)(F)F)c1 (racemic) [Example 62, (±)-2-(3-Spiro[3.3]hept-2-yl-ureido)-2-(3-trifluoromethyl-phenyl)-acetamide] | 65 nM | 50 nM
2 | CNC(=O)C(NC(=O)NC1CC2(CCC2)C1)c1cccc(C(F)(F)F)c1 (racemic) [Example 63, (±)-N-Methyl-2-(3-spiro[3.3]hept-2-yl-ureido)-2-(3-trifluoromethyl-phenyl)-acetamide] | 92 nM | 46 nM
3 | CS(=O)(=O)CC(NC(=O)NC1CC2(CCC2)C1)c1cccc(OC(F)(F)F)c1 (racemic) [Example 64, (±)-1-[2-Methanesulfonyl-1-(3-trifluoromethoxy-phenyl)-ethyl]-3-spiro[3.3]hept-2-yl-urea] | 47 nM | 44 nM
4 | CC(NC(=O)NC1CC2(CCC2)C1)c1ccc2c(c1)OC(F)(F)O2 (racemic) [Example 65, (±)-1-[1-(2,2-Difluoro-benzo[1,3]dioxol-5-yl)-ethyl]-3-spiro[3.3]hept-2-yl-urea] | 10 nM | 6.7 nM
5 | N#CCC(NC(=O)NC1CC2(CCC2)C1)c1cccc(OC(F)(F)F)c1 (racemic) [Example 66, (±)-1-[2-Cyano-1-(3-trifluoromethoxy-phenyl)-ethyl]-3-spiro[3.3]hept-2-yl-urea] | 17 nM | 8.2 nM
6 | N#CCC(NC(=O)NC1CC2(CCC2)C1)c1cccc(C(F)(F)F)c1 (racemic) [Example 67, (±)-1-[2-Cyano-1-(3-trifluoromethyl-phenyl)-ethyl]-3-spiro[3.3]hept-2-yl-urea] | 11 nM | 10 nM
7 | Cc1nc(OCC(F)(F)F)cc(C(C)NC(=O)NC2CC3(CCC3)C2)n1 (racemic) [Example 68, (±)-1-{1-[2-Methyl-6-(2,2,2-trifluoro-ethoxy)-pyrimidin-4-yl]-ethyl}-3-spiro[3.3]hept-2-yl-urea] | 18 nM | 18 nM
8 | CS(=O)(=O)CC(NC(=O)NC1CC2(CCC2)C1)c1cccc(C(F)(F)F)c1 (racemic) [Example 69, (±)-1-[2-Methanesulfonyl-1-(3-trifluoromethyl-phenyl)-ethyl]-3-spiro[3.3]hept-2-yl-urea] | 83 nM | 95 nM
9 | COCCOCC(NC(=O)NC1CC2(CCC2)C1)c1cccc(C(F)(F)F)c1 (racemic) [Example 71, (±)-1-[2-(2-Methoxy-ethoxy)-1-(3-trifluoromethyl-phenyl)-ethyl]-3-spiro[3.3]hept-2-yl-urea] | 105 nM | 92 nM
10 | CC(C)OCC(NC(=O)NC1CC2(CCC2)C1)c1cccc(C(F)(F)F)c1 (racemic) [Example 72, (±)-1-[2-Isopropoxy-1-(3-trifluoromethyl-phenyl)-ethyl]-3-spiro[3.3]hept-2-yl-urea] | 238 nM | 266 nM
11 | CCOCCC(NC(=O)NC1CC2(CCC2)C1)c1cccc(C(F)(F)F)c1 (racemic) [Example 73, (±)-1-[3-Ethoxy-1-(3-trifluoromethyl-phenyl)-propyl]-3-spiro[3.3]hept-2-yl-urea] | 244 nM | 305 nM
12 | O=C(NC1CC2(CCC2)C1)NC(CCO)c1cccc(C(F)(F)F)c1 (racemic) [Example 74, (±)-1-[3-Hydroxy-1-(3-trifluoromethyl-phenyl)-propyl]-3-spiro[3.3]hept-2-yl-urea] | 30 nM | 27 nM
13 | CSCCC(NC(=O)NC1CC2(CCC2)C1)c1cccc(C(F)(F)F)c1 (racemic) [Example 75, (±)-1-[3-Methylsulfanyl-1-(3-trifluoromethyl-phenyl)-propyl]-3-spiro[3.3]hept-2-yl-urea] | 129 nM | 106 nM
14 | O=C(NC1CC2(CCC2)C1)NC(CO)c1cccc(C(F)(F)F)c1 (racemic) [Example 76, (±)-1-[2-Hydroxy-1-(3-trifluoromethyl-phenyl)-ethyl]-3-spiro[3.3]hept-2-yl-urea] | 17 nM | 19 nM
15 | CCOCCC(NC(=O)NC1CC2(CCC2)C1)c1ccnc(OCC(F)(F)F)c1 (racemic) [Example 77, (±)-1-{3-Ethoxy-1-[2-(2,2,2-trifluoro-ethoxy)-pyridin-4-yl]-propyl}-3-spiro[3.3]hept-2-yl-urea] | 226 nM | 279 nM
16 | COCC(NC(=O)NC1CC2(CCC2)C1)c1cc(OCC(F)(F)F)ncn1 (racemic) [Example 78, (±)-1-{2-Methoxy-1-[6-(2,2,2-trifluoro-ethoxy)-pyrimidin-4-yl]-ethyl}-3-spiro[3.3]hept-2-yl-urea] | 7.2 nM | 9.4 nM
17 | NC(=O)CCC(NC(=O)NC1CC2(CCC2)C1)c1cccc(C(F)(F)F)c1 (racemic) [Example 79, (±)-4-(3-Spiro[3.3]hept-2-yl-ureido)-4-(3-trifluoromethyl-phenyl)-butyramide] | 634 nM | 599 nM
18 | C=CCC(NC(=O)NC1CC2(CCC2)C1)c1cccc(C(F)(F)F)c1 (racemic) [Example 80, (±)-1-Spiro[3.3]hept-2-yl-3-[1-(3-trifluoromethyl-phenyl)-but-3-enyl]-urea] | 14 nM | 13 nM
19 | CS(=O)(=O)CCC(NC(=O)NC1CC2(CCC2)C1)c1cccc(C(F)(F)F)c1 (racemic) [Example 81, (±)-1-[3-Methanesulfonyl-1-(3-trifluoromethyl-phenyl)-propyl]-3-spiro[3.3]hept-2-yl-urea] | 941 nM | 2180 nM
20 | Cc1nc(OCC(F)(F)F)cc(C(CO)NC(=O)NC2CC3(CCC3)C2)n1 (racemic) [Example 82, (±)-1-{2-Hydroxy-1-[2-methyl-6-(2,2,2-trifluoro-ethoxy)-pyrimidin-4-yl]-ethyl}-3-spiro[3.3]hept-2-yl-urea] | 59 nM | 66 nM
21 | O=C(NC1CC2(CCC2)C1)NC(CO)c1cc(OCC(F)(F)F)ncn1 (racemic) [Example 83, (±)-1-{2-Hydroxy-1-[6-(2,2,2-trifluoro-ethoxy)-pyrimidin-4-yl]-ethyl}-3-spiro[3.3]hept-2-yl-urea] | 100 nM | 93 nM
22 | O=C(NC1CC2(CCC2)C1)NC(CC(F)F)c1cccc(C(F)(F)F)c1 (racemic) [Example 84, (±)-1-[3,3-Difluoro-1-(3-trifluoromethyl-phenyl)-propyl]-3-spiro[3.3]hept-2-yl-urea] | 4.2 nM | 5.1 nM
23 | O=C(NC1CC2(CCC2)C1)NC(CCO)c1cc(OCC(F)(F)F)ncn1 (racemic) [Example 85, (±)-1-{3-Hydroxy-1-[6-(2,2,2-trifluoro-ethoxy)-pyrimidin-4-yl]-propyl}-3-spiro[3.3]hept-2-yl-urea] | 146 nM | 157 nM
24 | COCC(NC(=O)NC1CC2(CCC2)C1)c1cccc(S(C)(=O)=O)c1 (racemic) [Example 86, (±)-1-[1-(3-Methanesulfonyl-phenyl)-2-methoxy-ethyl]-3-spiro[3.3]hept-2-yl-urea] | 91 nM | 110 nM
25 | O=C(NC1CC2(CCC2)C1)NC(CO)c1cccc(OCC(F)(F)F)c1 (racemic) [Example 87, (±)-1-{2-Hydroxy-1-[3-(2,2,2-trifluoro-ethoxy)-phenyl]-ethyl}-3-spiro[3.3]hept-2-yl-urea] | 12 nM | 21 nM
26 | O=C(NC1CC2(CCC2)C1)NC(CCO)c1cccc(OCC(F)(F)F)c1 (racemic) [Example 88, (±)-1-{3-Hydroxy-1-[3-(2,2,2-trifluoro-ethoxy)-phenyl]-propyl}-3-spiro[3.3]hept-2-yl-urea] | 28 nM | 45 nM
27 | N#CC(NC(=O)NC1CC2(CCC2)C1)c1cccc(C(F)(F)F)c1 (racemic) [Example 89, 1-[(±)-Cyano-(3-trifluoromethyl-phenyl)-methyl]-3-spiro[3.3]hept-2-yl-urea] | 74 nM | 75 nM
